From publication PMC9573605, “Exploring Nitric Oxide (NO)-Releasing Celecoxib Derivatives as Modulators of Radioresponse in Pheochromocytoma Cells” (Molecules, 2022)

Test: Conversion in NO-assay buffer followed by UPLC
Assay type: physicochemical
Conditions: 37 °C
Method: The time-dependent degradation behavior of compounds 4f, 5a–f, and 6a–d as well as celecoxib was followed by UPLC analysis over a time course of 8 days (Figure 4). For that, compounds were incubated at 37 °C in the presence or absence of cysteine in the assay buffer used for the Griess assay. Samples were withdrawn at distinct time points (1, 5, 23, 47, 70, and 191 h), diluted into a mixture of acetonitrile/water, and analyzed.
The time-dependent conversion of NO-COXIBs 5a–f and 6a–d as well as reference compounds 4f and celecoxib in the presence or absence of cysteine in assay buffer was investigated by following the degradation of intact compound and identification of selected degradation products by UPLC. For that, samples were incubated at 37 °C in the assay buffer in the presence or absence of cysteine and at the indicated time point; 5 µL assay buffer of each sample was withdrawn and diluted with 45 µL MeCN/water (50/50 v/v). The samples were thoroughly vortexed and then subjected to UPLC analysis. All samples of one time point were analyzed within a total analysis time of approximately 2.5 h. Conversion was monitored at 254 nm using the following UPLC system: column Aquity UPLC® HSS C18 column (Waters Corporation, Milford, MA, USA; 100 × 2.1 mm, 1.8 µm, 130 Å), UPLC H-Class (Waters Corporation, Milford, MA, USA): quaternary gradient pump QSM, autosampler FTN, column heater CHA, and diode array detector PDAeλ, γ detector Gabi Star (Raytest Isotopenmeßgeräte GmbH, Straubenhardt, Germany), flow rate 0.4 mL/min, eluent: (A): 0.1% acetic acid in MeCN/MeOH 1/1/(B): 0.1% acetic acid in H2O; gradient: t0min 45/55–t0.5min 45/55–t5.5min 95/5–t7.0min 95/5–t7.2min 45/55–t8.5min 45/55). For the identification of degradation products, samples taken after 24 h were additionally subjected to HPLC-HRMS analysis using HPLC system 6. In brief, the NO-COXIBs were converted to the respective hydroxymethyl-substituted compounds and in the presence of cysteine additionally to the cysteine adduct, which could be identified by the respective Δm/z shifts. A detailed comparison of calculated and found m/z-signals is given in Supplementary Material Table S1, and copies of HPLC-HRMS chromatograms and selected spectra are given in Supplementary Material Figures S56–S66.

SMILES | intact compound (after 8 days (192 h)) | intact compound (after 70 h, absence of cysteine) | intact compound (after 70 h, presence of cysteine)
Cc1ccc(-c2c(Cl)c(CO[N+](=O)[O-])nn2-c2ccc(S(C)(=O)=O)cc2)cc1 [5c, {4-Chloro-1-[4-(methylsulfonyl)phenyl]-5-(p-tolyl)-1H-pyrazol-3-yl}methyl nitrate] | 57% | – | –
CCC(=O)NS(=O)(=O)c1ccc(-n2nc(CO[N+](=O)[O-])cc2-c2ccc(OC)cc2)cc1 [6d, {5-(4-Methoxyphenyl)-1-[4-(N-propionylsulfamoyl)phenyl]-1H-pyrazol-3-yl}methyl nitrate] | – | consumed | quantitatively consumed
